Like-named read-outs stand apart in the source and are kept apart here.
Key:
[1] = molecular target: T1, HCV NS5B (Hepatitis C virus genotype 1b, UniProt Q9WMX2); assay: HCV NS5B RdRp enzyme assay (standard or modified); type: biochemical
T1 construct: The protein was expressed with an 18 amino acid C-terminal truncation to enhance the solubility; made in house; host or cells: E. coli BL21(DE3)
Procedure: HCV NS5B RdRp cloning, expression, and purification. The cDNA encoding the NS5B protein of HCV, genotype 1b, was cloned into the pET21a expression vector. The protein was expressed with an 18 amino acid C-terminal truncation to enhance the solubility. The E. coli competent cell line BL21(DE3) was used for expression of the protein. Cultures were grown at 37 °C for ~ 4 hours until the cultures reached an optical density of 2.0 at 600 nm. The cultures were cooled to 20 °C and induced with I mM IPTG. Fresh ampicillin was added to a final concentration of 50 µg/ml and the cells were grown overnight at 20 °C.
Cell pellets (3L) were lysed for purification to yield 15-24 mgs of purified NS5B. The lysis buffer consisted of 20 mM Tris-HCl, pH 7.4, 500 mM NaCl, 0.5% triton X-100, 1 mM DTT, 1mM EDTA, 20% glycerol, 0.5 mg/ml lysozyme, 10 mM MgCl2, 15 ug/ml deoxyribonuclease I, and Complete TM protease inhibitor tablets (Roche). After addition of the lysis buffer, frozen cell pellets were resuspended using a tissue homogenizer. To reduce the viscosity of the sample, aliquots of the lysate were sonicated on ice using a microtip attached to a Branson sonicator. The sonicated lysate was centrifuged at 100,000 x g for 1hr at 4 °C and filtered through a 0.2 µm filter unit (Corning).
The protein was purified using three sequential chromatography steps: Heparin sepharose CL-6B, polyU sepharose 4B, and Hitrap SP sepharose (Pharmacia). The chromatography buffers were identical to the lysis buffer but contained no lysozyme, deoxyribonuclease I, MgCl2 or protease inhibitor and the NaCl concentration of the buffer was adjusted according to the requirements for charging the protein onto the column. Each column was eluted with a NaCl gradient which varied in length from 5-50 column volumes depending on the column type. After the final chromatography step, the resulting purity of the enzyme is >90% based on SDS-PAGE analysis. The enzyme was aliquoted and stored at -80 °C.
Standard HCV NS5B RdRp enzyme assay. HCV RdRp genotype 1b assays were run in a final volume of 60 µl in 96 well plates (Costar 3912). The assay buffer is composed of 20 mM Hepes, pH 7.5, 2.5 mM KCI, 2.5 mM MgCl2, 1 mM DTT, 1.6 U RNAse inhibitor (Promega N2515), 0.1 mg/ml BSA (Promega R3961), and 2 % glycerol. All compounds were serially diluted (3-fold) in DMSO and diluted further in water such that the final concentration of DMSO in the assay was 2%. HCV RdRp genotype Ib enzyme was used at a final concentration of 28 nM. A polyA template was used at.6 nM, and a biotinylated oligo-dT12 primer was used at 180 nM final concentration. Template was obtained commercially (Amersham 27-4110). Biotinylated primer was prepared by Sigma Genosys. 3H-UTP was used at 0.6 µCi (0.29 µM total UTP). Reactions were initiated by the addition of enzyme, incubated at 30 °C for 60 min, and stopped by adding 25 µl of 50 mM EDTA containing SPA beads (4 µg/µl, Amersham RPNQ 0007). Plates were read on a Packard Top Count NXT after > 1hr incubation at room temperature.
Modified HCV NS5B RdRp enzyme assay. A modified enzyme assay was performed essentially as described for the standard enzyme assay except for the following: The biotinylated oligo dT12 primer was precaptured on streptavidin-coated SPA beads by mixing primer and beads in assay buffer and incubating at room temperature for one hour. Unbound primer was removed after centrifugation. The primer-bound beads were resuspended in 20 mM Hepes buffer, pH 7.5 and used in the assay at final concentrations of 20 nM primer and 0.67 µg/µl beads. Order of addition in the assay: enzyme (14 nM) was added to diluted compound followed by the addition of a mixture of template (0.2 nM), 3H-UTP (0.6 µCi, 0.29 µM), and primer-bound beads, to initiate the reaction; concentrations given are final. Reactions were allowed to proceed for 4 hours at 30° C.
IC50 values for compounds were determined using seven different [I]. […]

[2] = tested on: HCV replicon; assay: HCV replicon assay (FRET or luciferase readout); type: cell-based
Text: FRET Assay Preparation. To perform the HCV FRET screening assay, 96-well cell culture plates were used. The FRET peptide (Anaspec, Inc.) (Taliani et al., Anal. Biochem. 1996, 240, 60-67) contains a fluorescence donor, EDANS, near one end of the peptide and an acceptor, DABCYL, near the other end. The fluorescence of the peptide is quenched by […] resonance energy transfer (RET) between the donor and the acceptor, but as the NS3 protease cleaves the peptide the products are released from RET quenching and the fluorescence of the donor becomes apparent. The assay reagent was made as follows: 5X cell Luciferase cell culture lysis reagent from Promega (#E153A) diluted to 1X with dH2O, NaCl added to 150 mM final, the FRET peptide diluted to 20 µM final from a 2 mM stock.
To prepare plates, HCV replicon cells, with or without a Renilla luciferase reporter gene, were trypsinized and placed into each well of a 96-well plate with titrated test compounds added in columns 3 through 12; columns 1 and 2 contained a control compound (HCV protease inhibitor), and the bottom row contained cells without compound. The plates were then placed in a CO2 incubator at 37 °C.
Assays. Subsequent to addition of the test compounds described above (FRET Assay Preparation), at various times the plate was removed and Alamar blue solution (Trek Diagnostics, #00-100) was added per well as a measure of cellular toxicity. After reading in a Cytoflour 4000 instrument (PE Biosystems), plates were rinsed with PBS and then used for FRET assay by the addition of 30 ul of the FRET peptide assay reagent described above (FRET Assay Preparation) per well. The plate was then placed into the Cytoflour 4000 instrument which had been set to 340 excite/490 emission, automatic mode for 20 cycles and the plate read in a kinetic mode. Typically, the signal to noise using an endpoint analysis after the reads was at least three-fold. Alternatively, after Alamar blue reading, plates were rinsed with PBS, 50 ul of DMEM (high glucose) without phenol red was added and plates were then used for luciferase assay using the Promega Dual-Glo Luciferase Assay System.
Compound analysis was determined by quantification of the relative HCV replicon inhibition and the relative cytotoxicity values. To calculate cytoxicity values, the average Alamar Blue fluorescence signals from the control wells were set as 100% non-toxic. The individual signals in each of the compound test wells were then divided by the average control signal and multiplied by 100% to determine […]. To calculate the HCV replicon inhibition values, an average background value was obtained from the two wells containing the highest amount of HCV protease inhibitor at the end of the assay period. These numbers were similar to those obtained from naïve Huh-7 cells.
The background numbers were then subtracted from the average signal obtained from the control wells and this number was used as 100% activity. The individual signals in each of the compound test wells were then divided by the averaged control values after background subtraction and multiplied by 100% to determine percent activity. EC50 values for a protease inhibitor titration were calculated as the concentration which caused a 50% reduction in FRET or luciferase activity. The two numbers generated for the compound plate, percent cytoxicity and percent activity were used to determine compounds of interest for further analysis.

[3] = HCV NS5B RdRp enzyme, genotype 1b, read-out: IC50
[4] = Hepatitis C virus, HCV replicon cells, FRET or luciferase activity, read-out: EC50

T1 sequence (Q9WMX2 2420-2992): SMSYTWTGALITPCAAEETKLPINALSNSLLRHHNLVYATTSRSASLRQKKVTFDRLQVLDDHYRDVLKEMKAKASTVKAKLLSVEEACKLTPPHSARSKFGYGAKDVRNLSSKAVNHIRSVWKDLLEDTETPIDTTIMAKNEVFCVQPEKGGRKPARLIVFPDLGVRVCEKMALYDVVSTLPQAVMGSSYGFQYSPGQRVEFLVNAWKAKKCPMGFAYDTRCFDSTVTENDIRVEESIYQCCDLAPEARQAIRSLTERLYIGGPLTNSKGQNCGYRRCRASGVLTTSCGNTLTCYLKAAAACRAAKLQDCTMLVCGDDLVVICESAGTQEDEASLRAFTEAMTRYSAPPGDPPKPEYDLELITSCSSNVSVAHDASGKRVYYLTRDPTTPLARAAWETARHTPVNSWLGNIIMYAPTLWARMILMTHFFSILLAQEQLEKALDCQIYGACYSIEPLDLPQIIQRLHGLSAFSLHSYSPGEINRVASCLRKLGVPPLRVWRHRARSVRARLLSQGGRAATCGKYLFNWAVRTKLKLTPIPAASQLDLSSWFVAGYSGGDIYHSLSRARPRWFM

| SMILES | IC50 [1, 3] [nM] | EC50 [2, 4] [nM] | EC50 ([2]; Hepatitis C virus) [nM] | other results |
| --- | --- | --- | --- | --- |
| CCn1nc(C)c(C2=Cc3cc(OC)ccc3-c3c(C4CCCCC4)c4ccc(C(=O)NS(=O)(=O)C(C)C)cc4n3C2)c1C(=O)N1C[C@@H](C)O[C@H](C)C1 | 1 to 500 | 1 to 500 | – | – |
| CCOC(=O)c1cnn(CC)c1C1=Cc2cc(OC)ccc2-c2c(C3CCCCC3)c3ccc(C(=O)OC(C)(C)C)cc3n2C1 | > 500 | > 500 | – | – |
| CCn1nc(C)c(C(=O)N2C3CCCC2COC3)c1C1=Cc2cc(OC)ccc2-c2c(C3CCCCC3)c3ccc(C(=O)NS(=O)(=O)C(C)C)cc3n2C1 | – | – | 1 to 500 | IC50 [1]: 1 to 500 nM |
| COc1ccc2c(c1)C=C(c1c(C(=O)N3CC4CC3CO4)cnn1CC(F)(F)F)Cn1c-2c(C2CCCCC2)c2ccc(C(=O)NS(=O)(=O)C(C)C)cc21 (stereo not shown) | 1 to 500 | – | 1 to 500 | – |
| COc1ccc2c(c1)C=C(c1c(C(=O)N3CCOCC3)c(C(C)C)nn1C)Cn1c-2c(C2CCCCC2)c2ccc(C(=O)NS(=O)(=O)C(C)C)cc21 | 1 to 500 | 1 to 500 | – | – |
| COc1ccc2c(c1)C=C(c1c(C(=O)N3C4CCC3CN(C)C4)ncn1C(C)C)Cn1c-2c(C2CCCCC2)c2ccc(C(=O)NS(=O)(=O)C(C)C)cc21 | – | – | 1 to 500 | IC50 [1]: 1 to 500 nM |
| COC[C@@H]1CN(C(=O)c2c(C)nn(C)c2C2=Cc3cc(OC)ccc3-c3c(C4CCCCC4)c4ccc(C(=O)NS(=O)(=O)C(C)C)cc4n3C2)CCO1 | 1 to 500 | 1 to 500 | – | – |
| COc1ccc2c(c1)C=C(c1c(C(=O)N3CCN(C)CC3)c(C(C)C)nn1C)Cn1c-2c(C2CCCCC2)c2ccc(C(=O)NS(=O)(=O)C(C)C)cc21 | 1 to 500 | 1 to 500 | – | – |
| COc1ccc2c(c1)C=C(c1c(C(=O)N3C[C@@H](C)N(C)[C@@H](C)C3)nnn1C(C)C)Cn1c-2c(C2CCCCC2)c2ccc(C(=O)NS(=O)(=O)C(C)C)cc21 | 1 to 500 | 1 to 500 | – | – |
| COc1ccc2c(c1)C=C(c1c(C(=O)N3C4COCC3COC4)cnn1CC(F)(F)F)Cn1c-2c(C2CCCCC2)c2ccc(C(=O)NS(=O)(=O)C(C)C)cc21 | – | – | 1 to 500 | IC50 [1]: 1 to 500 nM |
| COc1ccc2c(c1)C=C(c1c(C(=O)N3C[C@@H](C)N(C)[C@@H](C)C3)nnn1C(C)C)Cn1c-2c(C2CCCCC2)c2ccc(C(=O)NS(=O)(=O)N(C)C)cc21 | 1 to 500 | 1 to 500 | – | – |
| CCOC(=O)c1cnn(CC)c1C1=Cc2cc(OC)ccc2-c2c(C3CCCCC3)c3ccc(C(=O)O)cc3n2C1 | 1 to 500 | > 500 | – | – |
| CCn1ncc(C(=O)N2C[C@@H](C)N(C)[C@@H](C)C2)c1C1=Cc2cc(OC)ccc2-c2c(C3CCCCC3)c3ccc(C(=O)NS(=O)(=O)C(C)C)cc3n2C1 | 1 to 500 | 1 to 500 | – | – |
| COc1ccc2c(c1)C=C(c1c(C(=O)N3C[C@@H](C)N(C)[C@@H](C)C3)ncn1C(C)C)Cn1c-2c(C2CCCCC2)c2ccc(C(=O)NS(=O)(=O)C(C)C)cc21 | 1 to 500 | 1 to 500 | – | – |
| COc1ccc2c(c1)C=C(c1c(C(=O)N3CC4CCC(C3)O4)c(C)nn1C(C)C)Cn1c-2c(C2CCCCC2)c2ccc(C(=O)NS(=O)(=O)C(C)C)cc21 | – | – | 1 to 500 | – |
| CCn1nc(C)c(C(=O)N2C[C@@H](C)O[C@@H](C)C2)c1C1=Cc2cc(OC)ccc2-c2c(C3CCCCC3)c3ccc(C(=O)NS(=O)(=O)N(C)C)cc3n2C1 | 1 to 500 | 1 to 500 | – | – |
| COc1ccc2c(c1)C=C(c1c(C(=O)N3C4CCC3CN(C)C4)nnn1C(C)C)Cn1c-2c(C2CCCCC2)c2ccc(C(=O)NS(=O)(=O)N(C)C)cc21 | – | – | 1 to 500 | IC50 [1]: 1 to 500 nM |
| COc1ccc2c(c1)C=C(c1nn(C(C)C)c(C)c1C(=O)N1C[C@@H](C)O[C@@H](C)C1)Cn1c-2c(C2CCCCC2)c2ccc(C(=O)NS(=O)(=O)C(C)C)cc21 [drawing 151] | – | 1 to 500 | – | – |
| COc1ccc2c(c1)C=C(c1nn(C(C)C)c(C)c1C(=O)N1C[C@@H](C)O[C@@H](C)C1)Cn1c-2c(C2CCCCC2)c2ccc(C(=O)NS(=O)(=O)C(C)C)cc21 [drawing 156] | – | – | – | EC50 ([2]; HCV replicon cells, FRET or luciferase activity, read-out: EC50): 1 to 500 nM |
| CCn1nc(C)c(C(=O)N2C[C@@H](C)N(C)[C@@H](C)C2)c1C1=Cc2cc(OC)ccc2-c2c(C3CCCCC3)c3ccc(C(=O)NS(=O)(=O)C(C)C)cc3n2C1 | – | 1 to 500 | – | – |
| CCn1ncc(C(=O)N2C3CCCC2COC3)c1C1=Cc2cc(OC)ccc2-c2c(C3CCCCC3)c3ccc(C(=O)NS(=O)(=O)C(C)C)cc3n2C1 | – | – | 1 to 500 | – |
| CCn1ncc(C(=O)N2CC3CCC(C2)O3)c1C1=Cc2cc(OC)ccc2-c2c(C3CCCCC3)c3ccc(C(=O)NS(=O)(=O)C(C)C)cc3n2C1 | – | – | 1 to 500 | – |
| CCn1nc(C)c(C(=O)N2CCO[C@H](COC)C2)c1C1=Cc2cc(OC)ccc2-c2c(C3CCCCC3)c3ccc(C(=O)NS(=O)(=O)C(C)C)cc3n2C1 | – | 1 to 500 | – | – |
| CCn1nc(C)c(C(=O)N2CC3CCC(C2)N3C)c1C1=Cc2cc(OC)ccc2-c2c(C3CCCCC3)c3ccc(C(=O)NS(=O)(=O)C(C)C)cc3n2C1 | – | – | 1 to 500 | – |
